Converted amounts (≈) assume the structure as drawn. Where two headings read alike, the source gives them in different places.
Tests used:
E. coli PPK1 = tested on: E. coli PPK1; design: method as in earlier work; conditions: ref 1 (supplement: Ahn K, Kornberg A. 1990); cited from earlier work
P. aeruginosa PPK2B = molecular target: T1, P. aeruginosa PPK2B (Pseudomonas aeruginosa, UniProt Q9I154); experiment: PPK2B polyP synthesis from ATP, toluidine blue detection; assay type: biochemical
T1 construct: MBP (N, cleaved yes); His tag (N, cleaved yes); made in house; host or cells: E. coli BL21(DE3)
Procedure: (§1) Compounds were synthesized as outlined in Text S1. Compounds were dissolved in DMSO to make 10 mM stocks and added to a 200 μM final concentration for initial screening. The screen for PPK1 inhibitors was conducted by measuring polyP synthesis activity as described previously ([12]), with the exception of the polyP detection method (see Text S1). The reaction mix contained 50 mM HEPES-KOH, pH 7.5, 40 mM (NH4)2SO4, 4 mM MgSO4, 60 mM creatine phosphate, 0.0625 mg/ml creatine kinase (Sigma; from rabbit muscle), 5 mM ATP, and 275 nM PPK1 (added last). One-hundred-microliter reaction mixtures were incubated at 37°C for 30 min, after which time 50-μl aliquots were withdrawn and added to 1,000 μl of 6-mg/liter toluidine blue dissolved in 40 mM acetic acid to quench the reaction and quantify polyP ([27]). The A630/530 nm ratio was then recorded, and the values obtained were corrected by subtracting the corresponding blanks (all ingredients except enzyme). The amount of polyP synthesized was calculated using a standard curve (Fig. S1A). Any compounds showing 50% or greater reduction in activity relative to the DMSO control were subjected to further IC50 analysis.
(§2) All IC50 and kinetic assay mixtures contained equimolar amounts (275 nM) of PPK to ensure valid comparison between different enzymes. PolyP synthesis activity (for PPK1 and PPK2B) was assayed using the reaction buffer and conditions described above. ATP concentration was varied as indicated for kinetic experiments. Curves were fit using GraphPad Prism V9.

HEK293T cells = experiment: HEK293T cytotoxicity assay, trypan blue; assay type: cell-based, human; conditions: 48 h incubation
Procedure: HEK293 cells were grown in Dulbecco’s modified Eagle’s medium supplemented with 10% fetal bovine serum at 5% CO2 and 37°C. Cells were grown until a confluent monolayer was formed in 12-well culture plates, at which point inhibitors or DMSO was added. After 48-h incubation, cells were detached with trypsin and percent viability was scored via a hemocytometer and trypan blue staining.

P. aeruginosa PPK2A = molecular target: T2, P. aeruginosa PPK2A (Pseudomonas aeruginosa, UniProt Q9I6Z1); experiment: PPK2A ADP phosphorylation by polyP (ATP synthesis), toluidine blue detection; assay type: biochemical
T2 construct: residues P9 to P289; MBP (N, cleaved yes); His tag (N, cleaved yes); made in house; host or cells: E. coli BL21(DE3)
Procedure: as §2
(§3) Nucleotide phosphorylation activity of PPK2 enzymes was assayed in buffer containing 50 mM Tris-HCl, pH 7.5, 10 mM (NH4)2SO4, 10 mM MgCl2, 5 mM polyP45 (Sigma; in terms of individual Pi monomers), and nucleotide (ADP or AMP) at 5 mM for IC50 reactions or as indicated for kinetic experiments. Enzyme was added to a final concentration of 275 nM in 100-μl reaction volumes. One-hundred-microliter reaction mixtures were incubated at 37°C for 30 min, and then 5-μl aliquots were withdrawn and added to 1,000 μl of 6-mg/liter toluidine blue dissolved in 40 mM acetic acid to quench the reaction and quantify the polyP that remained. The A630/530 nm ratio was then recorded, and the values obtained were corrected by subtracting the corresponding blanks (all ingredients except enzyme). The amount of polyP consumed was calculated by subtracting the amount present after reaction from that present in the initial reaction mix, as calculated via a standard curve. Each monomer of Pi consumed from polyP equates to one nucleoside phosphorylated. Curves were fit using GraphPad Prism V9.

P. aeruginosa PPK1 = molecular target: T3, P. aeruginosa PPK1 (Pseudomonas aeruginosa, UniProt P0DP44); experiment: PPK1 polyP synthesis from ATP, toluidine blue detection; assay type: biochemical; conditions: polyP synthesis from ATP; 275 nM enzyme
T3 construct: His tag (cleaved yes); made in house
Procedure: as §1, with “The reaction mix contained 50 mM HEPES-KOH, pH 7.5, 40 mM (NH4)2SO4, 4 mM MgSO4, 60 mM creatine phosphate, 0.0625 mg/ml creatine kinase (Sigma; from rabbit muscle), 5 mM ATP, and 275 nM PPK1 (added last).” left out
as §2

P. aeruginosa PPK2C = molecular target: T4, P. aeruginosa PPK2C (Pseudomonas aeruginosa, UniProt Q9HYF1); experiment: PPK2C AMP phosphorylation by polyP (ADP synthesis), toluidine blue detection; assay type: biochemical
T4 construct: MBP (N, cleaved yes); His tag (N, cleaved yes); made in house; host or cells: E. coli BL21(DE3)
Procedure: as §2, §3

P. aeruginosa [1] = experiment: Antibiotic synergy in the C. elegans LK model; assay type: in vivo, Caenorhabditis elegans; design: C. elegans antibiotic synergy, Mean Diff.: unit not given here
Procedure: Assessment of antibiotic synergy in the C. elegans model was adapted from previously described protocols ([25]). Briefly, glp-4 C. elegans worms were incubated at 25°C with P. aeruginosa and the indicated amount of gallein or DMSO in LK medium as described above. After 24 h, antibiotics were added. After another 24 h, C. elegans survival was scored as described above.

P. aeruginosa [2] = experiment: microbe, parasite or virus in culture; assay type: cell-based, Pseudomonas aeruginosa; conditions: Pseudomonas aeruginosa
[3] = polyP synthesis from ATP, 275 nM enzyme, read-out: IC50 PPK2B
[4] = ATP synthesis from ADP and polyP, 275 nM enzyme, read-out: IC50 PPK2A
[5] = Data Set S1, sheet Risen compounds, read-out: PA PPK2A IC50
[6] = ADP synthesis from AMP and polyP, 275 nM enzyme, read-out: IC50 PPK2C
[7] = Data Set S1, sheet Risen compounds, read-out: PA PPK2C IC50

T3 sequence (P0DP44 whole entry): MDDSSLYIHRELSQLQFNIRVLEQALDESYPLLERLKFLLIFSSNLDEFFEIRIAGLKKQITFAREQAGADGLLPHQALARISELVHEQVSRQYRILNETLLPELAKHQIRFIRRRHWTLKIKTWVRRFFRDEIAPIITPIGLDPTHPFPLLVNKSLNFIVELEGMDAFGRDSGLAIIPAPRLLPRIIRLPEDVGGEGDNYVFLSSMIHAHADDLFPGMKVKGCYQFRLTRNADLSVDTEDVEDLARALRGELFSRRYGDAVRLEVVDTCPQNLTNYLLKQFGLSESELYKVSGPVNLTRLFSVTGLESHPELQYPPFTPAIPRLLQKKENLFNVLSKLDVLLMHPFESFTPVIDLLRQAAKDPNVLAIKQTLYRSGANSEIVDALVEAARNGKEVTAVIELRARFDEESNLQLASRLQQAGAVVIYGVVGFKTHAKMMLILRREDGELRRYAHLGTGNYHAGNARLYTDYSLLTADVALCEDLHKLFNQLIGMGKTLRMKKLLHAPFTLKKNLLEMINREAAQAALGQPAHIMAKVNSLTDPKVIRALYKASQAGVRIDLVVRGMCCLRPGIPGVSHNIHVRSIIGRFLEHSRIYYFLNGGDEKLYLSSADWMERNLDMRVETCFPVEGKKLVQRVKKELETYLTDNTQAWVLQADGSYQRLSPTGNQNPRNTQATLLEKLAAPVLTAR
T1 sequence (Q9I154 whole entry): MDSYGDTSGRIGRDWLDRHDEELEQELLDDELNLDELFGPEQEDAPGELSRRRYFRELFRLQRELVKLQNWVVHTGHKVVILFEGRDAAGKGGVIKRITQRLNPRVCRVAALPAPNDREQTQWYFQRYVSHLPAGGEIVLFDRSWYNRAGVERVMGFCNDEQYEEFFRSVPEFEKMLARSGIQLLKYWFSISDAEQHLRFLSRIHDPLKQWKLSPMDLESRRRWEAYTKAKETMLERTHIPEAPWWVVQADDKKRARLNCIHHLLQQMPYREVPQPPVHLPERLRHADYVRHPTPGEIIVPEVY
T4 sequence (Q9HYF1 whole entry): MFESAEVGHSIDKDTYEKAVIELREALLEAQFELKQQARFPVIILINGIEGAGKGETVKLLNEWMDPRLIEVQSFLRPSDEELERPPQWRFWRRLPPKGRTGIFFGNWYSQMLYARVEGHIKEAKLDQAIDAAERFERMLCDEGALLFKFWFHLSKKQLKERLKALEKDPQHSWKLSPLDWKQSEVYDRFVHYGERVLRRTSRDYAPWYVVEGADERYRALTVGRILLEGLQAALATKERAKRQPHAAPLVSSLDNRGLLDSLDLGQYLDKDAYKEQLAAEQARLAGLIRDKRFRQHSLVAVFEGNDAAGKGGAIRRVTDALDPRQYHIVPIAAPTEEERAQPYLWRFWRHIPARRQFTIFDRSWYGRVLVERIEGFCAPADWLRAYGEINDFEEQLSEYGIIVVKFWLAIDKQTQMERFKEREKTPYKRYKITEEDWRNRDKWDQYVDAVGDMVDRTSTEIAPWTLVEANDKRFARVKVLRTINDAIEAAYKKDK
T2 sequence (Q9I6Z1 68-348): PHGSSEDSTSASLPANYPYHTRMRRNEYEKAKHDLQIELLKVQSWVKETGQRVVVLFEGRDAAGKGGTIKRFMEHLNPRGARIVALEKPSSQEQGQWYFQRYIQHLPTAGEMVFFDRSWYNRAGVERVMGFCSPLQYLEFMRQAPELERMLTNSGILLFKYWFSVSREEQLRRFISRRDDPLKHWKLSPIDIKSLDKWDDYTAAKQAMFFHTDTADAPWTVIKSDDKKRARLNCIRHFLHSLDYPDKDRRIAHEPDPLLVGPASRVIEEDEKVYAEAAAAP

| Compound | IC50 (P. aeruginosa PPK2B; [3]) [µM] | IC50 (P. aeruginosa PPK2A; [4]) [µM] | IC50 (P. aeruginosa PPK2A; [5]) [µM] | IC50 (P. aeruginosa PPK1) [µM] | IC50 (P. aeruginosa PPK2C; [6]) [µM] | IC50 (P. aeruginosa PPK2C; [7]) [µM] | other results |
| --- | --- | --- | --- | --- | --- | --- | --- |
| Nc1ncnc2c1ncn2[C@@H]1O[C@H](COP(=O)(O)OP(=O)(O)O)[C@@H](O)[C@H]1O [ADP] | – | – | – | – | – | – | Ki (E. coli PPK1): 90 µM |
| COc1ccc2c(c1OC)c(=O)oc1c(OC)c(O)ccc12 [RT1, 3-hydroxy-4,7,8-trimethoxy-6H-benzo[c]chromen-6-one] | > 500 | > 500 | > 500 | 120 ± 10 | > 500 | > 500 | IC50 (P. aeruginosa PPK2B; Data Set S1, sheet Risen compounds, read-out: PA PPK2B IC50): > 500 µM; reduction of cell viability (HEK293T cells): ~60% |
| O=c1oc2c(O)c(O)c(O)c3c(=O)oc4c(O)c(O)cc1c4c23 [RT2, 1,2,3,7,8-pentahydroxychromeno[5,4,3-cde]chromene-5,10-dione] | 59 ± 5 | > 500 | > 500 | 20 ± 4 | > 500 | > 500 | – |
| O=c1oc2c(O)c(O)cc3c(=O)oc4c(O)c(O)cc1c4c23 [RT3 (ellagic acid), 2,3,7,8-tetrahydroxychromeno[5,4,3-cde]chromene-5,10-dione] | 48 ± 2 | 50 ± 6 | – | 20 ± 2 | > 500 | > 500 | – |
| O=C(O)c1cn(C2CC2)c2cc(N3CCNCC3)c(F)cc2c1=O [ciprofloxacin, reference compound] | – | – | – | – | – | – | C. elegans antibiotic synergy, Mean Diff. (P. aeruginosa [1]; No antibiotic + 100 µM gallein vs Cipro (0.75 µg/mL) + 100 µM gallein): -18.9; C. elegans antibiotic synergy, Mean Diff. (P. aeruginosa [1]; No antibiotic DMSO vs Cipro (0.75 µg/mL) DMSO): 12.02 |
| CN(C)[C@@H]1C(O)=C(C(N)=O)C(=O)[C@@]2(O)C(O)=C3C(=O)c4c(O)cccc4[C@@](C)(O)[C@H]3C[C@@H]12 [tetracycline, reference compound] | – | – | – | – | – | – | C. elegans antibiotic synergy, Mean Diff. (P. aeruginosa [1]; No antibiotic + 100 µM gallein vs Tet (10 µg/mL) + 100 µM gallein): -22.79; C. elegans antibiotic synergy, Mean Diff. (P. aeruginosa [1]; No antibiotic DMSO vs Tet (10 µg/mL) DMSO): 10.54; MIC (P. aeruginosa [2]): 16 µg/mL (≈ 36 µM) |

— PMC8262977, “A Dual-Specificity Inhibitor Targets Polyphosphate Kinase 1 and 2 Enzymes To Attenuate Virulence of Pseudomonas aeruginosa” (mBio, 2021)
